In patent publication US10004701B2, “Methods and compositions for treating infection” (UNIVERSITY OF ROCHESTER, priority 2012, dated 2018):
Counter-ions that a name gives are not always drawn. Like-named read-outs stand apart in the source and are kept apart here.

Tests used:
Assay in all cases: AK assay 384-well format, Prestwick library screening
[1] = system: P. aeruginosa; type: cell-based, Pseudomonas aeruginosa; details: for fold induction at 50 µM: Pseudomonas aeruginosa, 3 h
[2] = system: E. faecium; type: cell-based, Enterococcus faecium; details: for fold induction at 50 µM: Enterococcus faecium, 3 h
[3] = system: K. pneumoniae; type: cell-based, Klebsiella pneumoniae; details: for fold induction at 50 µM: Klebsiella pneumoniae, 3 h
[4] = system: S. aureus strain USA300-0114; type: cell-based, Staphylococcus aureus; details: for fold induction at 50 µM: Staphylococcus aureus, USA300, 3 h
[5] = system: E. coli; type: cell-based, Escherichia coli; details: for fold induction at 50 µM: Escherichia coli, 3 h
[6] = system: E. cloacae; type: cell-based, Enterobacter cloacae; details: for fold induction at 50 µM: Enterobacter cloacae, 3 h
[7] = system: A. baumannii strain 98-37-09; type: cell-based, Acinetobacter baumannii; details: for fold induction at 50 µM: Acinetobacter baumannii, 983709, 3 h
[8] = 50 μM final drug concentration, planktonic, […]
[9] = 50 μM final drug concentration, planktonic, cutoff for positive 3-fold increase, read-out: AK-based Prestwick Library Screening Results, P. aeruginosa (fold increase in extracellular AK activity)
[10] = 50 μM final drug concentration, planktonic, cutoff for positive 3-fold increase, read-out: AK-based Prestwick Library Screening Results, E. faecium (fold increase in extracellular AK activity)
[11] = 50 μM final drug concentration, planktonic, cutoff for positive 3-fold increase, read-out: AK-based Prestwick Library Screening Results, K. pneumoniae (fold increase in extracellular AK activity)
[12] = 50 μM final drug concentration, planktonic, cutoff for positive 3-fold increase, read-out: AK-based Prestwick Library Screening Results, S. aureus (fold increase in extracellular AK activity)
[13] = 50 μM final drug concentration, planktonic, cutoff for positive 3-fold increase, read-out: AK-based Prestwick Library Screening Results, E. coli (fold increase in extracellular AK activity)
[14] = 50 μM final drug concentration, planktonic, cutoff for positive 3-fold increase, read-out: AK-based Prestwick Library Screening Results, E. cloacae (fold increase in extracellular AK activity)
[15] = 50 μM final drug concentration, planktonic, cutoff for positive 3-fold increase, read-out: AK-based Prestwick Library Screening Results, A. baumannii (fold increase in extracellular AK activity)

`Cc1ccnc(NS(=O)(=O)c2ccc(N)cc2)n1` [Sulfamerazine] showed a fold induction at 50 µM ([1]; 50 μM final drug concentration, cutoff for positive-scoring molecules 3-fold increase, read-out: AK-based Prestwick Library Screening Results, P. aeruginosa (fold increase in extracellular AK activity)) of 1, a fold induction at 50 µM ([2]; 50 μM final drug concentration, cutoff for positive-scoring molecules 3-fold increase, read-out: AK-based Prestwick Library Screening Results, E. faecium (fold increase in extracellular AK activity)) of 1 and a fold induction at 50 µM ([3]; 50 μM final drug concentration, cutoff for positive-scoring molecules 3-fold increase, read-out: AK-based Prestwick Library Screening Results, K. pneumoniae (fold increase in extracellular AK activity)) of 1. The fold induction at 50 µM ([4]; 50 μM final drug concentration, cutoff for positive-scoring molecules 3-fold increase, read-out: AK-based Prestwick Library Screening Results, S. aureus (fold increase in extracellular AK activity)) was 0.9, the fold induction at 50 µM ([5]; 50 μM final drug concentration, cutoff for positive-scoring molecules 3-fold increase, read-out: AK-based Prestwick Library Screening Results, E. coli (fold increase in extracellular AK activity)) was 1.1 and the fold induction at 50 µM ([6]; 50 μM final drug concentration, cutoff for positive-scoring molecules 3-fold increase, read-out: AK-based Prestwick Library Screening Results, E. cloacae (fold increase in extracellular AK activity)) was 1.9. For the same compound, the fold induction at 50 µM ([7]; 50 μM final drug concentration, cutoff for positive-scoring molecules 3-fold increase, read-out: AK-based Prestwick Library Screening Results, A. baumannii (fold increase in extracellular AK activity)) was 2.1.
With `CC1CCC2C(C)C3C(CC4C5CC=C6CC(OC7OC(CO)C(O)C(OC8OC(CO)C(O)C(O)C8O)C7OC7OC(C)C(O)C(O)C7O)CCC6(C)C5CCC43C)N2C1` (stereo not drawn) [Solanine alpha] the “AK-based Prestwick Library Screening Results, P. aeruginosa (fold increase in extracellular AK activity)” value [1, 8] was 1.2, the “AK-based Prestwick Library Screening Results, E. faecium (fold increase in extracellular AK activity)” value [2, 8] was 1.0 and the “AK-based Prestwick Library Screening Results, K. pneumoniae (fold increase in extracellular AK activity)” value [3, 8] was 1.2. The “AK-based Prestwick Library Screening Results, S. aureus (fold increase in extracellular AK activity)” value [4, 8] was 1.2, the “AK-based Prestwick Library Screening Results, E. coli (fold increase in extracellular AK activity)” value [5, 8] was 1.2 and the “AK-based Prestwick Library Screening Results, E. cloacae (fold increase in extracellular AK activity)” value [6, 8] was 1.7. The “AK-based Prestwick Library Screening Results, A. baumannii (fold increase in extracellular AK activity)” value [7, 8] was 1.3.
`CN1[C@@H]2CC[C@H]1C[C@@H](OC(=O)c1c[nH]c3ccccc13)C2` [Tropisetron HCl] was tested, and the fold induction at 50 µM [1, 9] was 1.1, the fold induction at 50 µM [2, 10] was 1 and the fold induction at 50 µM [3, 11] was 0.8. The fold induction at 50 µM [4, 12] was 0.9, the fold induction at 50 µM [5, 13] was 1.1 and the fold induction at 50 µM [6, 14] was 1.3. It also gave a fold induction at 50 µM [7, 15] of 1.3.
For `C=CCN1CCCC1CNC(=O)c1cc2[nH]nnc2cc1OC` (stereo not drawn) [Alizapride HCl], the fold induction at 50 µM [1, 9] was 1.1, the fold induction at 50 µM [2, 10] was 1 and the fold induction at 50 µM [3, 11] was 0.9. It also gave a fold induction at 50 µM [4, 12] of 1, a fold induction at 50 µM [5, 13] of 1 and a fold induction at 50 µM [6, 14] of 1.4. It also gave a fold induction at 50 µM [7, 15] of 1.1.
In the case of `O=C(O)c1cc(/N=N/c2ccc(S(=O)(=O)Nc3ccccn3)cc2)ccc1O` [Sulfasalazine], the fold induction at 50 µM ([1]; planktonic P. aeruginosa, 50 μM final drug concentration, cutoff for positive-scoring molecules 3-fold increase, read-out: AK-based Prestwick Library Screening Results, P. aeruginosa (increase in extracellular AK activity)) is reported as 0.8, the fold induction at 50 µM ([2]; planktonic E. faecium, 50 μM final drug concentration, cutoff for positive-scoring molecules 3-fold increase, read-out: AK-based Prestwick Library Screening Results, E. faecium (increase in extracellular AK activity)) is reported as 0.9 and the fold induction at 50 µM ([3]; planktonic K. pneumoniae, 50 μM final drug concentration, cutoff for positive-scoring molecules 3-fold increase, read-out: AK-based Prestwick Library Screening Results, K. pneumoniae (increase in extracellular AK activity)) is reported as 0.7. It also gave a fold induction at 50 µM ([4]; planktonic S. aureus, 50 μM final drug concentration, cutoff for positive-scoring molecules 3-fold increase, read-out: AK-based Prestwick Library Screening Results, S. aureus (increase in extracellular AK activity)) of 0.8, a fold induction at 50 µM ([5]; planktonic E. coli, 50 μM final drug concentration, cutoff for positive-scoring molecules 3-fold increase, read-out: AK-based Prestwick Library Screening Results, E. coli (increase in extracellular AK activity)) of 0.8 and a fold induction at 50 µM ([6]; planktonic E. cloacae, 50 μM final drug concentration, cutoff for positive-scoring molecules 3-fold increase, read-out: AK-based Prestwick Library Screening Results, E. cloacae (increase in extracellular AK activity)) of 1.1. It also gave a fold induction at 50 µM ([7]; planktonic A. baumannii, 50 μM final drug concentration, cutoff for positive-scoring molecules 3-fold increase, read-out: AK-based Prestwick Library Screening Results, A. baumannii (increase in extracellular AK activity)) of 1.1.
Compound `O=C(O)/C=C/c1ccc(O)c(O)c1` [Caffeic acid] has a fold induction at 50 µM ([1]; 50 μM final drug concentration, planktonic, cutoff for positive-scoring molecules 3-fold increase, read-out: AK-based Prestwick Library Screening Results, P. aeruginosa (fold increase in extracellular AK activity)) of 0.9, a fold induction at 50 µM ([2]; 50 μM final drug concentration, planktonic, cutoff for positive-scoring molecules 3-fold increase, read-out: AK-based Prestwick Library Screening Results, E. faecium (fold increase in extracellular AK activity)) of 0.9 and a fold induction at 50 µM ([3]; 50 μM final drug concentration, planktonic, cutoff for positive-scoring molecules 3-fold increase, read-out: AK-based Prestwick Library Screening Results, K. pneumoniae (fold increase in extracellular AK activity)) of 0.8. The fold induction at 50 µM ([4]; 50 μM final drug concentration, planktonic, cutoff for positive-scoring molecules 3-fold increase, read-out: AK-based Prestwick Library Screening Results, S. aureus (fold increase in extracellular AK activity)) was 0.8, the fold induction at 50 µM ([5]; 50 μM final drug concentration, planktonic, cutoff for positive-scoring molecules 3-fold increase, read-out: AK-based Prestwick Library Screening Results, E. coli (fold increase in extracellular AK activity)) was 1 and the fold induction at 50 µM ([6]; 50 μM final drug concentration, planktonic, cutoff for positive-scoring molecules 3-fold increase, read-out: AK-based Prestwick Library Screening Results, E. cloacae (fold increase in extracellular AK activity)) was 1. For the same compound, the fold induction at 50 µM ([7]; 50 μM final drug concentration, planktonic, cutoff for positive-scoring molecules 3-fold increase, read-out: AK-based Prestwick Library Screening Results, A. baumannii (fold increase in extracellular AK activity)) was 0.8.
For `C[C@H](CS)C(=O)N1CCC[C@H]1C(=O)O` [Captopril], the fold induction at 50 µM ([1]; 50 μM final drug concentration, 384-well format, cutoff for positive-scoring molecules 3-fold increase, read-out: AK-based Prestwick Library Screening Results, P. aeruginosa (increase in extracellular AK activity)) was 0.6, the fold induction at 50 µM ([2]; 50 μM final drug concentration, 384-well format, cutoff for positive-scoring molecules 3-fold increase, read-out: AK-based Prestwick Library Screening Results, E. faecium (increase in extracellular AK activity)) was 1 and the fold induction at 50 µM ([3]; 50 μM final drug concentration, 384-well format, cutoff for positive-scoring molecules 3-fold increase, read-out: AK-based Prestwick Library Screening Results, K. pneumoniae (increase in extracellular AK activity)) was 0.6. It also gave a fold induction at 50 µM ([4]; 50 μM final drug concentration, 384-well format, cutoff for positive-scoring molecules 3-fold increase, read-out: AK-based Prestwick Library Screening Results, S. aureus (increase in extracellular AK activity)) of 0.7, a fold induction at 50 µM ([5]; 50 μM final drug concentration, 384-well format, cutoff for positive-scoring molecules 3-fold increase, read-out: AK-based Prestwick Library Screening Results, E. coli (increase in extracellular AK activity)) of 0.7 and a fold induction at 50 µM ([6]; 50 μM final drug concentration, 384-well format, cutoff for positive-scoring molecules 3-fold increase, read-out: AK-based Prestwick Library Screening Results, E. cloacae (increase in extracellular AK activity)) of 0.8. The fold induction at 50 µM ([7]; 50 μM final drug concentration, 384-well format, cutoff for positive-scoring molecules 3-fold increase, read-out: AK-based Prestwick Library Screening Results, A. baumannii (increase in extracellular AK activity)) was 0.8.
With `Cc1ccc(C)c(OCCCC(C)(C)C(=O)O)c1` [Gemfibrozil] the fold induction at 50 µM ([1]; planktonic P. aeruginosa, 50 μM final drug concentration, 384-well, cutoff for positive-scoring molecules 3-fold increase, read-out: AK-based Prestwick Library Screening Results: P. aeruginosa (increase in extracellular AK activity)) was 1.2, the fold induction at 50 µM ([2]; planktonic E. faecium, 50 μM final drug concentration, 384-well, cutoff for positive-scoring molecules 3-fold increase, read-out: AK-based Prestwick Library Screening Results: E. faecium (increase in extracellular AK activity)) was 1 and the fold induction at 50 µM ([3]; planktonic K. pneumoniae, 50 μM final drug concentration, 384-well, cutoff for positive-scoring molecules 3-fold increase, read-out: AK-based Prestwick Library Screening Results: K. pneumoniae (increase in extracellular AK activity)) was 0.9. It also gave a fold induction at 50 µM ([4]; planktonic S. aureus, 50 μM final drug concentration, 384-well, cutoff for positive-scoring molecules 3-fold increase, read-out: AK-based Prestwick Library Screening Results: S. aureus (increase in extracellular AK activity)) of 0.9, a fold induction at 50 µM ([5]; planktonic E. coli, 50 μM final drug concentration, 384-well, cutoff for positive-scoring molecules 3-fold increase, read-out: AK-based Prestwick Library Screening Results: E. coli (increase in extracellular AK activity)) of 1.3 and a fold induction at 50 µM ([6]; planktonic E. cloacae, 50 μM final drug concentration, 384-well, cutoff for positive-scoring molecules 3-fold increase, read-out: AK-based Prestwick Library Screening Results: E. cloacae (increase in extracellular AK activity)) of 1.5. For the same compound, the fold induction at 50 µM ([7]; planktonic A. baumannii, 50 μM final drug concentration, 384-well, cutoff for positive-scoring molecules 3-fold increase, read-out: AK-based Prestwick Library Screening Results: A. baumannii (increase in extracellular AK activity)) was 1.3.
In the case of `Oc1ccc2c3c1O[C@H]1[C@@H](O)CC[C@@]4(O)[C@@H](C2)N(CC2CCC2)CC[C@]314` [Nalbuphine hydrochloride], the fold induction at 50 µM ([1]; read-out: AK-based Prestwick Library Screening Results, P. aeruginosa (increase in extracellular AK activity)) is reported as 0.8, the fold induction at 50 µM ([2]; read-out: AK-based Prestwick Library Screening Results, E. faecium (increase in extracellular AK activity)) is reported as 0.9 and the fold induction at 50 µM ([3]; read-out: AK-based Prestwick Library Screening Results, K. pneumoniae (increase in extracellular AK activity)) is reported as 0.7. The fold induction at 50 µM ([4]; read-out: AK-based Prestwick Library Screening Results, S. aureus (increase in extracellular AK activity)) was 0.7, the fold induction at 50 µM ([5]; read-out: AK-based Prestwick Library Screening Results, E. coli (increase in extracellular AK activity)) was 0.9 and the fold induction at 50 µM ([6]; read-out: AK-based Prestwick Library Screening Results, E. cloacae (increase in extracellular AK activity)) was 1.2. For the same compound, the fold induction at 50 µM ([7]; read-out: AK-based Prestwick Library Screening Results, A. baumannii (increase in extracellular AK activity)) was 0.9.
